Test results: ChEMBL document CHEMBL4507268 (2021)

Assays:
Conditions in all cases: Compound concentration 1.0 uM
[1] = biological target: Cyclin-dependent kinase 13/Cyclin-K (Homo sapiens) (UniProt Q14004+O75909)
[2] = biological target: T1, Ephrin type-A receptor 8 (Homo sapiens) (UniProt P29322)
T1 sequence (whole entry): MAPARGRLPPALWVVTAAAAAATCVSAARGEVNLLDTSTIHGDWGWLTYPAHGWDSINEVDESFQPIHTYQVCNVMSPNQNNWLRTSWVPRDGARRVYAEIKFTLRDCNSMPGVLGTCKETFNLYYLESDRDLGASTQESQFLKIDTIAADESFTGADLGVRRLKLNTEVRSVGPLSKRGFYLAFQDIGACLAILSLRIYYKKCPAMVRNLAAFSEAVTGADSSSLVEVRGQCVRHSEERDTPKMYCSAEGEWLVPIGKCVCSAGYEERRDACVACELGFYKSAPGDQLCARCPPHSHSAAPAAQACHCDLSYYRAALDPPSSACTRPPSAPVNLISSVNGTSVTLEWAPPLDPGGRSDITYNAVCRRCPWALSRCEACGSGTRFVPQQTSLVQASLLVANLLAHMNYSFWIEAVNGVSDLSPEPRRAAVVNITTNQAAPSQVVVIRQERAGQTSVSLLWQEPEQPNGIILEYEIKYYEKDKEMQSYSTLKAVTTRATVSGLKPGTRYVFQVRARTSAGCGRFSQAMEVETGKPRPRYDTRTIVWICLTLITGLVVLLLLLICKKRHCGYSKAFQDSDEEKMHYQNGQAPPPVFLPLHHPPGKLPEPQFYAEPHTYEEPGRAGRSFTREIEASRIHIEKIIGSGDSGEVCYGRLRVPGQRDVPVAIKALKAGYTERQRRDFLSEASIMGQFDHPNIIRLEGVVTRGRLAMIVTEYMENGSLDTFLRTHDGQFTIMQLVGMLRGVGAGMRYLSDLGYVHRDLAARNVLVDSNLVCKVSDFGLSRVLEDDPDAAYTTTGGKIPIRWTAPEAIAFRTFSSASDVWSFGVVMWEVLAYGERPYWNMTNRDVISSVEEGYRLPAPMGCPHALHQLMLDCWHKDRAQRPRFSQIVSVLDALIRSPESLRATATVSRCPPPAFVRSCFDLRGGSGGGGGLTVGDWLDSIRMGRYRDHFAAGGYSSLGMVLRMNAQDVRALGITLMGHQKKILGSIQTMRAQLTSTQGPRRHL

[3] = biological target: Serine/threonine-protein kinase 32C (Homo sapiens) (UniProt Q86UX6)
[4] = biological target: T2, Serine/threonine-protein kinase Nek2 (Homo sapiens) (UniProt P51955)
T2 sequence (whole entry): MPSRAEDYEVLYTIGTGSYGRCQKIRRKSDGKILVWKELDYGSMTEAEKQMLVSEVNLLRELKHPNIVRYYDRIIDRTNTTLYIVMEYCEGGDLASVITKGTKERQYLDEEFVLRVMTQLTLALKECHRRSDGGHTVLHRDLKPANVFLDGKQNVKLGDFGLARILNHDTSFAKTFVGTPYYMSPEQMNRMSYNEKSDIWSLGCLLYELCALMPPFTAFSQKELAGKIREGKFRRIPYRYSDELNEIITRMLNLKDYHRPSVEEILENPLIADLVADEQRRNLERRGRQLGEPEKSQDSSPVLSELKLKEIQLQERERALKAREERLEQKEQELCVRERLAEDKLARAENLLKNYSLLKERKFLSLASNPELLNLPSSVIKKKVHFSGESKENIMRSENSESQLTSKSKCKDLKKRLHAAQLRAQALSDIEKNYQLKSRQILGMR

Measured: % residual kinase activity

Serine/threonine-protein kinase 32C (Homo sapiens), sequence (Q86UX6 whole entry): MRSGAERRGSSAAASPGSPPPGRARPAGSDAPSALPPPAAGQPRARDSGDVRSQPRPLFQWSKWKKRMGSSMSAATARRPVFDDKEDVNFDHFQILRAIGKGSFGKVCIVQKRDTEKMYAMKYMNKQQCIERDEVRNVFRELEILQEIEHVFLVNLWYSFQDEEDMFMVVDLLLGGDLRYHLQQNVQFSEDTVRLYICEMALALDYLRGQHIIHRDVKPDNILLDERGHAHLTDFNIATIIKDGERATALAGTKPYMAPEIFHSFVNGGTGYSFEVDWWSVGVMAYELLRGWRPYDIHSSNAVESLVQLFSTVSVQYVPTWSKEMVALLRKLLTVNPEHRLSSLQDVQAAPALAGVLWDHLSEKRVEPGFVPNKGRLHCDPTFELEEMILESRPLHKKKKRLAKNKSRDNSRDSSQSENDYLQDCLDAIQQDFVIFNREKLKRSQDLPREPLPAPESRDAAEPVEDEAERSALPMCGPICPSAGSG
Cyclin-dependent kinase 13/Cyclin-K (Homo sapiens), sequence (O75909 whole entry, looked up): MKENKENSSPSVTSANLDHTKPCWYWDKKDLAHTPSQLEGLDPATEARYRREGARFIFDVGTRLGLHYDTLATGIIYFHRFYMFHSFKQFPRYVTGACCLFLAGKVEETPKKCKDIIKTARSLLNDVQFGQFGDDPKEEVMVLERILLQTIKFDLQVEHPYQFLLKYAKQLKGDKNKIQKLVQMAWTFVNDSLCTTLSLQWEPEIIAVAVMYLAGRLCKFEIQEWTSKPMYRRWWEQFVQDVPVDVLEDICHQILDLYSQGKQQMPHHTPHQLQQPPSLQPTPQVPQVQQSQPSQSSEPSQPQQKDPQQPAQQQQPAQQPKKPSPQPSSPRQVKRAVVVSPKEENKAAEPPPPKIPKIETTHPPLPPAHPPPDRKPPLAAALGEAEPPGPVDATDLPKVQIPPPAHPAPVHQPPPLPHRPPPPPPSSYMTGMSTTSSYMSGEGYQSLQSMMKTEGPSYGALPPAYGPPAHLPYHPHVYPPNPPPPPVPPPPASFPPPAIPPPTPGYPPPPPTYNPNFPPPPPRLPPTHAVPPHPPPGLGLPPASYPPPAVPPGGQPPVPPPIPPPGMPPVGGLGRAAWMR
Cyclin-dependent kinase 13/Cyclin-K (Homo sapiens), sequence (Q14004 whole entry, looked up): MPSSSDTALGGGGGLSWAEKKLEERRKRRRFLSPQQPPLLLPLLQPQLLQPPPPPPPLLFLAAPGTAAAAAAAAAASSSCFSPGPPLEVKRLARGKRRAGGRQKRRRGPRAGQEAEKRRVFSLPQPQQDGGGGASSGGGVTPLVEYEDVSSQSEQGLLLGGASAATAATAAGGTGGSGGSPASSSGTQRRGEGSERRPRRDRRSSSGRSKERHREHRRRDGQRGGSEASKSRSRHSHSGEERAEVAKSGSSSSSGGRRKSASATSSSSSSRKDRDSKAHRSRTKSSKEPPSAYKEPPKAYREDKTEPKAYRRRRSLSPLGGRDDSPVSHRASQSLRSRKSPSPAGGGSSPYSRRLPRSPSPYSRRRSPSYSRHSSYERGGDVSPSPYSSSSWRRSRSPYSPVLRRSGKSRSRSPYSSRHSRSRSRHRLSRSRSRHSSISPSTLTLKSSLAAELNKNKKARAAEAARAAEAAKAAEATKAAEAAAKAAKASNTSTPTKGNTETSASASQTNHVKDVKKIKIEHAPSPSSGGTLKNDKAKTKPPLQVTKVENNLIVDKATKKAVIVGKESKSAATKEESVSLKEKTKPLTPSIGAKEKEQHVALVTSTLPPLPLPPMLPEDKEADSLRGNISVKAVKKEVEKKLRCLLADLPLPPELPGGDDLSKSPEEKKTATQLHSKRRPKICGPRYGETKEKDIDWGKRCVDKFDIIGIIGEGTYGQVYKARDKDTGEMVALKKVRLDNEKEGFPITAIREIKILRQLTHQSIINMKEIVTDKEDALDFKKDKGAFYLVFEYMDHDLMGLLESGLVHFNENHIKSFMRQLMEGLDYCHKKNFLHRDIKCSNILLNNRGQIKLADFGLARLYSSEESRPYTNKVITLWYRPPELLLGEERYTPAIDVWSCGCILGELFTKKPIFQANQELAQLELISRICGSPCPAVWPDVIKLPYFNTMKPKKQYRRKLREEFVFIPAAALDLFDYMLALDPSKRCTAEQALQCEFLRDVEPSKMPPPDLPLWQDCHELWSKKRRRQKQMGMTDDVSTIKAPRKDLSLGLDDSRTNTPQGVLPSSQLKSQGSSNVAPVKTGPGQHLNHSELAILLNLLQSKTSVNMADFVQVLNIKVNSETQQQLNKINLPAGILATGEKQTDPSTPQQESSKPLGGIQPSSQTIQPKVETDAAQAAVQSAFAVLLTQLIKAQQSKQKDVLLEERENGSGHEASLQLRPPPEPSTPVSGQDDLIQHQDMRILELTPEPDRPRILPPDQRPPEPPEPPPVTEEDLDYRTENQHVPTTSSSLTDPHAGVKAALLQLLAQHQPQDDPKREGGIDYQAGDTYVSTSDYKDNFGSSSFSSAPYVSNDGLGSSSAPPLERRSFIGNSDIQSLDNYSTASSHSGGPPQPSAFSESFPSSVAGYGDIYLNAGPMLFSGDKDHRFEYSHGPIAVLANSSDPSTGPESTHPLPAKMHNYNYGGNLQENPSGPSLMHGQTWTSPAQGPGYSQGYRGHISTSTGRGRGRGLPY

CN1CCN(c2cnc3c(C4CCN(C(=O)c5ccc(OC(F)(F)F)cc5N)CC4)ncnc3c2)CC1 [BAY-885]
inactive: [1] 109% | [2] 104% | [3] 103% | [4] 111%
